Measured values reported in US12172975B2, “1H-indazole carboxamides as receptor-interacting protein kinase 1 inhibitors (RIPK1)” (BRISTOL-MYERS SQUIBB COMPANY, priority 2018, dated 2024).
Counter-ions that a name gives are not always drawn. Like-named read-outs stand apart in the source and are kept apart here.

Tests used:
[1] = system: MLKL phosphorylation in HT29-L23 human colorectal adenocarcinoma cells; assay: MLKL Phosphorylation High-Content Assay; format: cell-based; settings: 6 h, necroptosis induced with TNFα, SMAC mimetic and Z-VAD, read-out: pMLKL (IC50)
Outline: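 Following fixation and staining for phospho-S358 MLKL with Hoechst nuclear counterstain, high-content imaging quantified phosphorylation in HT29-L23 cells challenged 6 h with TNFα 35 ng/mL, SMAC mimetic 700 nM and Z-VAD 140 nM. Nec-1s at 6.25 μM defined full inhibition; 4-parameter logistic fits yielded IC50 and Ymax.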

[2] = target: T1, His-GST-TVMV-hRIPK1 (1-324) (Homo sapiens (Human), UniProt Q13546); assay: biochemical
T1 sequence (Q13546 1-324): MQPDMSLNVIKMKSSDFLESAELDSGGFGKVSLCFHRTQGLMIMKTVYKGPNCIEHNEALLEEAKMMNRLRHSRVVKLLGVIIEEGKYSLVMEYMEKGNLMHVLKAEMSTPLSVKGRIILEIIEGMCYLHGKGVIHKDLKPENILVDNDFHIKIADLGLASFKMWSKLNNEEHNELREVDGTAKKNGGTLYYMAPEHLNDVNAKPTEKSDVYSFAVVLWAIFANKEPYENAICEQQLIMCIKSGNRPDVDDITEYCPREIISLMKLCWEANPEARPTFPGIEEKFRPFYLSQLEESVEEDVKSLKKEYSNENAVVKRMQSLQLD
Method: (§1) A solution was prepared containing 0.2 nM Anti GST-Tb (Cisbio, 61GSTTLB), 90.6 nM probe and 1 nM His-GST-TVMV-hRIPK1 (1-324) in FRET Buffer (20 mM HEPES, 10 mM MgCl2, 0.015% Brij-35, 4 mM DTT, 0.05 mg/mL BSA). Using Formulatrix Tempest, the detection antibody/enzyme/probe solution (2 mL) was dispensed into wells of a 1536 plate (Black Low Binding Polystyrene 1536 Plate (Corning, 3724)) containing 10 nL of compounds of interest at appropriate concentration in DMSO. The plate was incubated at rt for 1 h. FRET was measured using the EnVision plate reader (Excitation: 340 nm, Emission: 520 nm/495 nM). Total signal (0% inhibition) was calculated from wells containing 10 nL DMSO only.

[3] = target: T1, His-GST-TVMV-hRIPK1 (1-324); assay: RIPK1 HTRF Binding Assay; settings: read-out: RIPK1 HTRF (IC50); FRET probe displacement, 1 h at rt
Method: as §1

`CNC(=O)c1n[nH]c2cc(-c3cnc(OC)c(C(=O)NC(C)c4ccccc4OC(F)(F)F)c3)cc(F)c12` (racemic) [Example 24, 4-fluoro-6-[6-methoxy-5-({1-[2-(trifluoromethoxy)phenyl]ethyl}carbamoyl)pyridin-3-yl]-N-methyl-1H-indazole-3-carboxamide] gave an IC50 ([1]; Homo sapiens) of 11 nM and an IC50 [2] of 5.4 nM.

Compound `[2H]C([2H])([2H])Oc1ncc(-c2ccc3c(C(=O)NC4CC4)n[nH]c3c2)cc1C(=O)N[C@H](C)c1ccccc1C(F)(F)F` [Example 209, N-cyclopropyl-6-[6-(deutero)-methoxy-5-{[(1R)-1-[2-(trifluoro-methyl)phenyl]ethyl]carbamoyl}-pyridin-3-yl]-1H-indazole-3-carboxamide] has an IC50 ([1]; Homo sapiens) of 74 nM and an IC50 [2] of 33 nM.

In the case of `CCCNC(=O)c1n[nH]c2cc(-c3cnc(OC)c(C(=O)NCc4ccccc4OC(F)(F)F)c3)ccc12` [Example 176, 6-[6-methoxy-5-({[2-(trifluoro-methoxy)phenyl]methyl}carbam-oyl)pyridin-3-yl]-N-propyl-1H-indazole-3-carboxamide], the IC50 [3] is reported as 10 nM and the IC50 ([1]; Homo sapiens) is reported as 16 nM.

With `CNC(=O)c1n[nH]c2cc(-c3cnc(OC)c(C(=O)NCc4ccccc4OCC4CCC4)c3)ccc12` [Example 86, 6-[5-({[2-(cyclobutylmethoxy)-phenyl]methyl}carbamoyl)-6-methoxypyridin-3-yl]-N-methyl-1H-indazole-3-carbox-amide] the IC50 [3] was 2.4 nM and the IC50 [1] was 4.1 nM.

`CCNC(=O)c1n[nH]c2cc(-c3cnc(OC)c(C(=O)N[C@H](C)c4cc(C(F)(F)F)ccc4F)c3)ccc12` [Example 234, N-[(1,1,2,2,2-deutero)ethyl]-6-(5-{[(1R)-1-[2-fluoro-5-(trifluorometh-yl)phenyl](2,2,2-deutero)ethyl]-carbamoyl}-6-(deutero)methoxy-pyridin-3-yl)-1H-indazole-3-carbox-amide] showed an IC50 [3] of 8.7 nM and an IC50 [1] of 20 nM.

In the case of `CNC(=O)c1n[nH]c2cc(-c3cnc(OC)c(C(=O)NC4CCCC(C(=O)N5CC(F)(F)C5)C4)c3)ccc12` (stereo not shown) [Example 132, 6-(5-{[3-(3,3-difluoroazet-idine-1-carbonyl)cyclohexyl]-carbamoyl}-6-methoxypyridin-3-yl)-N-methyl-1H-indazole-3-carboxamide, TFA], the IC50 [3] is reported as 35 nM and the IC50 [1] is reported as 140 nM.

With `CCCN(CC1CC1)C(=O)C1CCCC(NC(=O)c2cc(-c3ccc4c(C(=O)NC)n[nH]c4c3)cnc2OC)C1` (stereo not shown) [Example 123, 6-[5-({3-[(cyclopropylmethyl)-(propyl)carbamoyl]cyclohexyl}-carbamoyl)-6-methoxypyridin-3-yl]-N-methyl-1H-indazole-3-carboxamide] the IC50 [3] was 21 nM and the IC50 ([1]; Homo sapiens) was 75 nM.

In the case of `CNC(=O)c1n[nH]c2cc(-c3cc(C(=O)NC(C)c4cccc(OC(F)(F)F)c4)c(C)nc3C)ccc12` (single isomer, unassigned) [Example 163, 6-[2,6-dimethyl-5-({1-[3-(trifluoromethoxy)phenyl]-ethyl}carbamoyl)pyridin-3-yl]-N-methyl-1H-indazole-3-carboxamide], the IC50 [3] is reported as 47 nM and the IC50 [1] is reported as 180 nM.

`CNC(=O)c1n[nH]c2cc(-c3cnc(OC)c(C(=O)NCc4cc(F)ccc4OC(C)C)c3)ccc12` [Example 130, 6-[5-({[5-fluoro-2-(propan-2-yloxy)phenyl]methyl}carbam-oyl)-6-methoxy-pyridin-3-yl]-N-methyl-1H-indazole-3-carboxamide] was tested, and the IC50 [3] was 1.9 nM and the IC50 [1] was 3.9 nM.

For `CNC(=O)c1n[nH]c2cc(-c3cnc(OC)c(C(=O)NC45CC6CC(C4)CC(c4ccccc4)(C6)C5)c3)ccc12` [Example 95, 6-{6-methoxy-5-[(3-phenyl-adamantan-1-yl)carbamoyl]-pyridin-3-yl}-N-methyl-1H-indazole-3-carboxamide], the IC50 [3] was 17 nM and the IC50 ([1]; Homo sapiens) was 9.3 nM.

`CNC(=O)c1n[nH]c2cc(-c3cnc(OC)c(C(=O)NCc4ncccc4OCC4CCC4)c3)ccc12` [Example 117, 6-[5-({[3-(cyclobutylmethoxy)-pyridin-2-yl]methyl}carbam-oyl)-6-methoxypyridin-3-yl]-N-methyl-1H-indazole-3-carboxamide, TFA] showed an IC50 [3] of 2.6 nM and an IC50 [1] of 11 nM.

Compound `CNC(=O)c1n[nH]c2cc(-c3cnc(OC)c(C(=O)NCC4CCCN4C(=O)C(C)(C)C(F)(F)F)c3)ccc12` (stereo not shown) [Example 96, 6-[6-methoxy-5-({[1-(3,3,3-trifIuoro-2,2-dimethylpropan-oyl)pyrrolidin-2-yl]methyl}-carbamoyl)pyridin-3-yl]-N-methyl-1H-indazole-3-carboxamide] has an IC50 [3] of 34 nM and an IC50 [1] of 4.6 nM.

Compound `[2H]C([2H])([2H])NC(=O)c1n[nH]c2cc(-c3cnc(OC)c(C(=O)NCc4ccccc4OC(F)(F)F)c3)ccc12` [Example 153] has an IC50 [3] of 2.9 nM and an IC50 ([1]; Homo sapiens) of 6.3 nM.

In the case of `[2H]C([2H])([2H])Oc1ncc(-c2ccc3c(C(=O)NC4CC4)n[nH]c3c2)cc1C(=O)N[C@H](C)c1cc(OC(F)(F)F)ccc1F` [Example 201, N-cyclopropyl-6-(5-{[(1R)-1-[2-fluoro-5-(trifluoromethoxy)-phenyl]ethyl]carbamoyl}-6-(deutero)methoxypyridin-3-yl)-1H-indazole-3-carboxamide], the IC50 [3] is reported as 11 nM and the IC50 ([1]; Homo sapiens) is reported as 110 nM.

Work on `[2H]C([2H])([2H])Oc1ncc(-c2ccc3c(C(=O)NC4CC4)n[nH]c3c2)cc1C(=O)NC1CCCC(C(=O)N2CCCC2)C1` (stereo not shown) [Example 204] yielded an IC50 [3] of 12 nM and an IC50 ([1]; Homo sapiens) of 84 nM.

Work on `[2H]C([2H])([2H])Oc1ncc(-c2ccc3c(C(=O)NCC(C)(C)F)n[nH]c3c2)cc1C(=O)N[C@@H]1CN(C(=O)C2CC(F)(F)C2)C[C@@H]1F` [Example 193, 6-(5-{[(3R,4S)-1-(3,3-difluorocyclo-butanecarbonyl)-4-fluoropyrrolidin-3-yl]carbamoyl}-6-(deutero)methoxy-pyridin-3-yl)-N-(2-fluoro-2-methyl-propyl)-1H-indazole-3-carboxamide] yielded an IC50 [3] of 260 nM and an IC50 ([1]; Homo sapiens) of 480 nM.

Work on `COc1ncc(-c2ccc3c(C(=O)NCC4CC4)n[nH]c3c2)cc1C(=O)NCc1ccccc1OC(F)(F)F` [Example 172, N-(cyclopropylmethyl)-6-[6-methoxy-5-({[2-(trifluoro-methoxy)phenyl]methyl}-carbamoyl)pyridin-3-yl]-1H-indazole-3-carboxamide] yielded an IC50 [3] of 14 nM and an IC50 ([1]; Homo sapiens) of 28 nM.

`CNC(=O)c1n[nH]c2cc(-c3cnc(OC)c(C(=O)NCC4(c5ccccc5OC(F)(F)F)CC4)c3)ccc12` [Example 72, 6-{6-methoxy-5-[({1-[2-(tri-fluoromethoxy)phenyl]cyclo-propyl}methyl)carbamoyl]-pyridin-3-yl}-N-methyl-1H-indazole-3-carboxamide] gave an IC50 [3] of 390 nM and an IC50 ([1]; Homo sapiens) of 400 nM.

With `COc1ncc(-c2ccc3c(C(=O)NC4CC4)n[nH]c3c2)cc1C(=O)N[C@@H]1CN(C(=O)C2CCC(F)(F)C2)C[C@@H]1F` (stereo partly drawn) [Example 199, N-cyclopropyl-6-(5-{[(3R,4S)-1-(3,3-difluorocyclopentanecarbon-yl)-4-fluoropyrrolidin-3-yl]-carbamoyl}-6-(deutero)methoxy-pyridin-3-yl)-1H-indazole-3-carboxamide, TFA] the IC50 [3] was 340 nM and the IC50 [1] was 99 nM.

`[2H]C([2H])([2H])NC(=O)c1n[nH]c2cc(-c3cnc(OC([2H])([2H])[2H])c(C(=O)N[C@@H](C)c4cccc(C(F)(F)F)c4)c3)ccc12` [Example 214, 6-[6-(deutero)methoxy-5-{[(1S)-1-[3-(trifluoromethyl)phenyl]ethyl]carbam-oyl}pyridin-3-yl]-N-(deutero)methyl-1H-indazole-3-carboxamide] was tested, and the IC50 [3] was 9.8 nM and the IC50 ([1]; Homo sapiens) was 36 nM.

`CNC(=O)c1n[nH]c2cc(-c3cnc(OC)c(C(=O)NC4CCCC(OCC(F)(F)F)C4)c3)ccc12` (stereo not shown) [Example 87, 6-(6-methoxy-5-{[3-(2,2,2-trifluoroethoxy)cyclohexyl]-carbamoyl}pyridin-3-yl)-N-methyl-1H-indazole-3-carbox-amide] gave an IC50 [3] of 3.9 nM and an IC50 [1] of 13 nM.

With `[2H]C([2H])([2H])Oc1ncc(-c2ccc3c(C(=O)NC)n[nH]c3c2)cc1C(=O)NC([2H])([2H])c1ccccc1OC(F)(F)F` [Example 16, 6-(6-methoxy D3-5-((2-(trifluoromethoxy)benzyl D2)carbamoyl)pyridin-3-yl)-N-methyl-1H-indazole-3-carboxamide] the IC50 [3] was 2.2 nM and the IC50 ([1]; Homo sapiens) was 8.6 nM.

For `CNC(=O)c1n[nH]c2cc(-c3cnc(OC)c(C(=O)NCc4cc(OC(F)(F)F)ccc4F)c3)ccc12` [Example 137], the IC50 [3] was 1.6 nM and the IC50 [1] was 2.9 nM.

`[2H]C([2H])([2H])NC(=O)c1n[nH]c2cc(-c3cnc(OC)c(C(=O)NCC(C)(C)C(=O)OC4CCOCC4)c3)ccc12` [Example 148, oxan-4-yl 3-[(2-methoxy-5-{3-[(deutero)methylcarbamoyl]-1H-indazol-6-yl}pyridin-3-yl)formamido]-2,2-dimethyl-propanoate] was tested, and the IC50 [3] was 54 nM and the IC50 ([1]; Homo sapiens) was 96 nM.

Compound `COc1ncc(-c2ccc3c(C(=O)NC4CCC(N(C)C)CC4)n[nH]c3c2)cc1C(=O)NCc1ccccc1OC(F)(F)F` (stereo not shown) [Example 185, N-[4-(dimethylamino)cyclo-hexyl]-6-[6-methoxy-5-({[2-(trifluoromethoxy)phenyl]-methyl}carbamoyl)pyridin-3-yl]-1H-indazole-3-carboxamide] has an IC50 [3] of 13 nM and an IC50 ([1]; Homo sapiens) of 110 nM.

`COc1ncc(-c2ccc3c(C(=O)NC4CC4)n[nH]c3c2)cc1C(=O)N[C@@H](C)c1cc(OC(F)(F)F)ccc1F` [Example 206, N-cyclopropyl-6-(5-{[(1S)-1-[2-fluoro-5-(trifluoromethoxy)-phenyl](2,2,2-deutero)ethyl]-carbamoyl}-6-(deutero)methoxy-pyridin-3-yl)-1H-indazole-3-carboxamide] gave an IC50 [3] of 220 nM and an IC50 [1] of 3.8 nM.
